From US8815875B2 (Merck Sharp & Dohme Corp., priority 2008, dated 2014)
pKd: −log10 of the molar value.

Target: FABP4 (Homo sapiens, UniProt P15090)
Assay: TdF (Temperature Dependence Fluorescence) assay, thermal shift, FABP4
Assay type: binding
Description: TdF (Temperature Dependence Fluorescence) Assay for FABP3 and FABP4
The TdF assay was mainly conducted in the 96-well based CHROMO-4 real time fluorescence plate reader (BioRad). The Sypro Orange (Sigma-Aldrich), environmentally sensitive fluorescence dye, was used to monitor the protein folding-unfolding transition. Protein-ligand binding was gauged by the change (or shift) in the unfolding transition temperature (ΔTm) acquired at protein alone with respect to protein in the presence of ligand of interest.
The compound of interest was first prepared in DMSO stock (typical concentration: 10 mM). […] Final percentage of DMSO resided in the sample was 2%. The sample plate was heated from 30° C. to 90° C. with thermal ramping rate of 1° C./min. The fluorescence signals were acquired with excitation and emission wavelengths centered at 490 and 560 nm respectively. The instrument thermal stability was ±0.2° C.
Theoretical basis for TdF-based ligand binding affinity constant
In brief, the binding constant of the ligand at the Tm is expressed as below:
[formula] where To is the midpoint of unfolding for unliganded protein and Tm is the midpoint of unfolding in presence of ligand. [LTm] is free ligand at Tm. The ΔHu and ΔCpu are the enthalpy of unfolding and heat capacity change of unfolding for the protein respectively.
The nonlinear regression fitting in general readily reaches convergence by properly constraining the initial values for the fitting parameters (e.g. the initial “guess” for the ΔHu was constrained to 120 kcal/mol; initial Yn and mn were set to 1 and zero to best represent the melting curve along the low temperature region; negative slope of −0.5 was initially chosen for mu; initial Tm was also constrained to 50° C.).
[formula] (see Brandts et al and Mayhood et al, shown above) where ΔHL (T) is the van't Hoff enthalpy of ligand binding at temperature T and ΔCpL is the heat capacity upon ligand binding. For simplicity, the ΔCpL and ΔHL (T) were set to zero and −7 kcal/mol respectively. […] TdCD (Temperature-dependent Circular Dichroism) Assay for FABP3/4/5

Chain of FABP4 (P15090 whole entry, species assumed): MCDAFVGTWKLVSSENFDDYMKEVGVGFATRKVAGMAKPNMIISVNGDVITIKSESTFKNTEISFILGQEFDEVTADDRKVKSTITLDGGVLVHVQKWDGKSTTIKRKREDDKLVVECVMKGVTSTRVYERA

Row | Compound | pKd | FABP4 TdF Kd
1 | CCc1ccc(OCc2cc(=O)n3nc(C(=O)OC)nc3[nH]2)cc1 [8-7] | < 6.30 | –
2 | CCc1ccc(OCc2cc(=O)n3nc(C4CC4)nc3[nH]2)cc1 [8-12] | < 6.30 | –
3 | CCc1ccc(OCc2cc(=O)n3nc(-c4ccccc4)nc3[nH]2)c(OC)c1 [1-69] | – | B (0.5 ≦ B < 0.001 μM)
4 | O=c1cc(CN2CCc3ccccc32)[nH]c2nc(-c3ccccc3)nn12 [1-43] | < 6.30 | –
5 | CN(C)C(=O)C1(OCc2cc(=O)n3nc(-c4ccccc4)nc3[nH]2)CCCCC1 [48-30] | < 6.30 | –
6 | O=c1cc(CN2CCCC2Cc2cccc(Cl)c2)[nH]c2nc(-c3ccccc3)nn12 (stereo not shown) [1-57] | – | B (0.5 ≦ B < 0.001 μM)
7 | Cc1c(Cl)cccc1OC(C)c1cc(=O)n2nc(-c3ccccc3)nc2[nH]1 (stereo not shown) [37-5] | – | B (0.5 ≦ B < 0.001 μM)
8 | CC1(C)CCC(OCc2cc(=O)n3nc(-c4ccccc4)nc3[nH]2)CC1 [1-147] | – | B (0.5 ≦ B < 0.001 μM)
9 | N#Cc1cccc(OCc2cc(=O)n3nc(-c4ccccc4)nc3[nH]2)c1C1CC1 [46-2] | – | B (0.5 ≦ B < 0.001 μM)
10 | Cc1c(Cl)cccc1NCc1[nH]c2ncnn2c(=O)c1Cl [13-2] | < 6.30 | –
11 | O=c1cc(COc2cccc(OC(F)(F)F)c2)[nH]c2nc(-c3ccccc3)nn12 [1-64] | < 6.30 | –
12 | CN(CC1(CO)CCC1)C(=O)C1(OCc2cc(=O)n3nc(-c4ccccc4)nc3[nH]2)CCCCC1 [48-46] | – | B (0.5 ≦ B < 0.001 μM)
13 | Cc1ccc(F)c2ccn(Cc3cc(=O)n4nc(-c5ccccc5)nc4[nH]3)c12 [1-141] | < 6.30 | –
14 | CC1(NC(=O)C2(OCc3cc(=O)n4nc(-c5ccccc5)nc4[nH]3)CCCCC2)COC1 [48-43] | < 6.30 | –
15 | CC1(NC(=O)c2c(Cl)cccc2OCc2cc(=O)n3nc(-c4ccccc4)nc3[nH]2)COC1 [47-47] | – | B (0.5 ≦ B < 0.001 μM)
16 | O=C(Nc1c(Cl)cccc1OCc1cc(=O)n2nc(-c3ccccc3)nc2[nH]1)C1CCC1 [49-2] | – | B (0.5 ≦ B < 0.001 μM)
17 | Nc1cc(C2CC2)n(C(=O)c2c(Cl)cccc2OCc2cc(=O)n3nc(-c4ccccc4)nc3[nH]2)n1 [47-49] | – | B (0.5 ≦ B < 0.001 μM)
18 | O=c1cc(CN2CCCC2Cc2ccc(F)cc2)[nH]c2nc(-c3ccccc3)nn12 (stereo not shown) [1-56] | < 6.30 | –
19 | O=C(NCC1(CO)CC1)c1ccccc1OCc1cc(=O)n2nc(-c3ccccc3)nc2[nH]1 [47-65] | – | B (0.5 ≦ B < 0.001 μM)
20 | CCc1ccc(OCc2cc(=O)n3nc(CO)nc3[nH]2)cc1 [8-8] | < 6.30 | –

Row | Compound | pKd | FABP4 TdF Kd
21 | CN(Cc1cc(=O)n2nc(-c3ccccc3)nc2[nH]1)C1Cc2ccccc2C1 [1-54] | < 6.30 | –
22 | O=c1cc(COc2cccc(Cl)c2CO)[nH]c2nc(-c3ccccc3)nn12 [30-2] | – | B (0.5 ≦ B < 0.001 μM)
23 | COc1ccc2c(c1)CN(Cc1cc(=O)n3nc(-c4ccccc4)nc3[nH]1)C2=O [1-29] | < 6.30 | –
24 | Cc1c(Cl)cccc1OCc1cc(=O)n2nc(-c3ccccc3Cl)nc2[nH]1 [25-7] | < 6.30 | –
25 | CCc1ccc(OCc2cc(=O)n3nc(C(=O)O)nc3[nH]2)cc1 [9-1] | < 6.30 | –
26 | CC1(C)CC(OCc2cc(=O)n3nc(-c4ccccc4)nc3[nH]2)CC(C)(C)C1 [1-97] | – | B (0.5 ≦ B < 0.001 μM)
27 | Cc1c(Cl)cccc1OCc1cc(=O)n2nc(-c3ccccc3)nc2n1C [28-1] | < 6.30 | –
28 | O=c1c(Cl)c(CN2CCOc3c(Br)cccc32)[nH]c2nc(-c3ccccc3)nn12 [24-4] | – | B (0.5 ≦ B < 0.001 μM)
29 | O=c1cc(COc2cc(Cl)ccc2CC2CC2)[nH]c2nc(-c3ccccc3)nn12 [43-3] | – | B (0.5 ≦ B < 0.001 μM)
30 | COc1ccccc1C1(CNC(=O)C2(OCc3cc(=O)n4nc(-c5ccccc5)nc4[nH]3)CCCCC2)CCC1 [48-57] | – | B (0.5 ≦ B < 0.001 μM)
31 | Cc1c(Cl)cccc1OCc1cc(=O)n2nc(-c3ccccn3)nc2[nH]1 [25-3] | – | B (0.5 ≦ B < 0.001 μM)
32 | O=C(CC1CC1)Nc1c(Cl)cccc1OCc1cc(=O)n2nc(-c3ccccc3)nc2[nH]1 [49-6] | – | B (0.5 ≦ B < 0.001 μM)
33 | COc1ccccc1C1(CNC(=O)c2c(Cl)cccc2OCc2cc(=O)n3nc(-c4ccccc4)nc3[nH]2)CC1 [47-48] | – | B (0.5 ≦ B < 0.001 μM)
34 | O=C(N1CCS(=O)(=O)CC1)C1(OCc2cc(=O)n3nc(-c4ccccc4)nc3[nH]2)CCCCC1 [48-4, 4-[[1-[(4,7-dihydro-7-oxo-2-phenyl[1,2,4]triazolo[1,5-a]pyrimidin-5-yl)methoxy]cyclohexyl]carbonyl]thiomorpholine, 1,1-dioxide] | < 6.30 | –
35 | Cn1ccc(NC(=O)c2ccccc2OCc2cc(=O)n3nc(-c4ccccc4)nc3[nH]2)n1 [47-57] | < 6.30 | –
36 | O=c1cc(COc2ccc(OC(F)(F)F)cc2)[nH]c2nc(-c3ccccc3)nn12 [1-65] | < 6.30 | –
37 | O=C(NCC1CCC1)C1(OCc2cc(=O)n3nc(-c4ccccc4)nc3[nH]2)CCCCC1 [48-20] | – | B (0.5 ≦ B < 0.001 μM)
38 | O=c1cc(COC2CCc3ccccc32)[nH]c2nc(-c3ccccc3)nn12 (stereo not shown) [1-9] | – | B (0.5 ≦ B < 0.001 μM)
39 | O=C(NCC1CC1)c1ccccc1OCc1cc(=O)n2nc(-c3ccccc3)nc2[nH]1 [47-55] | – | B (0.5 ≦ B < 0.001 μM)
40 | COC(=O)C1(NC(=O)C2(OCc3cc(=O)n4nc(-c5ccccc5)nc4[nH]3)CCCCC2)CCCCC1 [48-53] | – | B (0.5 ≦ B < 0.001 μM)

Row | Compound | pKd | FABP4 TdF Kd
41 | O=C(O)C1(OCc2cc(=O)n3nc(-c4ccccc4)nc3[nH]2)CCCCC1 [48-2, 1-((7-oxo-2-phenyl-4,7-dihydro-[1,2,4]triazolo[1,5-a]pyrimidin-5-yl)methoxy)cyclohexanecarboxylic acid] | < 6.30 | –
42 | COCCNC(=O)C1(OCc2cc(=O)n3nc(-c4ccccc4)nc3[nH]2)CCCCC1 [48-24] | – | B (0.5 ≦ B < 0.001 μM)
43 | N#Cc1cc(F)cc(OCc2cc(=O)n3nc(-c4ccccc4)nc3[nH]2)c1 [1-23] | < 6.30 | –
44 | Cc1c(Cl)cccc1NC(=O)c1cc(=O)n2nc(-c3ccccc3)nc2[nH]1 [11-3] | < 6.30 | –
45 | O=C(NCC1(CO)CCCC1)C1(OCc2[nH]c3nc(-c4ccccc4)nn3c(=O)c2Cl)CCCCC1 [50-5] | ≥ 9.00 | –
46 | O=C(Nc1c(Cl)cccc1OCc1cc(=O)n2nc(-c3ccccc3)nc2[nH]1)C1CCCC1 [49-4] | – | B (0.5 ≦ B < 0.001 μM)
47 | COc1ccccc1C1(CNC(=O)c2c(Cl)cccc2OCc2cc(=O)n3nc(-c4ccccc4)nc3[nH]2)CCC1 [47-23] | – | B (0.5 ≦ B < 0.001 μM)
48 | O=c1cc(COc2cccnc2Br)[nH]c2nc(-c3ccccc3)nn12 [1-148] | < 6.30 | –
49 | COCC1(CNC(=O)c2c(Cl)cccc2OCc2cc(=O)n3nc(-c4ccccc4)nc3[nH]2)CC1 [47-19, 2-chloro-N-((1-(methoxymethyl)cyclopropyl)methyl)-6-((7-oxo-2-phenyl-4,7-dihydro-[1,2,4]triazolo[1,5-a]pyrimidin-5-yl)methoxy)benzamide] | – | B (0.5 ≦ B < 0.001 μM)
50 | O=C(O)C1(NC(=O)C2(OCc3cc(=O)n4nc(-c5ccccc5)nc4[nH]3)CCCCC2)CCCCC1 [48-44] | – | B (0.5 ≦ B < 0.001 μM)
51 | CCc1ccc(SCc2cc(=O)n3nc(-c4ccccc4)nc3[nH]2)cc1 [12-1] | – | B (0.5 ≦ B < 0.001 μM)
52 | O=C(NCC1CCC1)c1c(Cl)cccc1OCc1cc(=O)n2nc(-c3ccccc3)nc2[nH]1 [47-5, 2-chloro-N-(cyclobutylmethyl)-6-((7-oxo-2-phenyl-4,7-dihydro-[1,2,4]triazolo[1,5-a]pyrimidin-5-yl)methoxy)benzamide] | – | B (0.5 ≦ B < 0.001 μM)
53 | Cc1ccc(C(C)C)cc1N(C)Cc1cc(=O)n2nc(-c3ccccc3)nc2[nH]1 [1-35] | – | B (0.5 ≦ B < 0.001 μM)
54 | Cc1cc(N)nn1C(=O)c1c(Cl)cccc1OCc1cc(=O)n2nc(-c3ccccc3)nc2[nH]1 [47-52] | – | B (0.5 ≦ B < 0.001 μM)
55 | O=c1nc(SCc2cccc(Cl)c2Cl)[nH]c2nc(-c3ccccc3)nn12 [51-4] | < 6.30 | –
56 | O=c1cc(COc2cc(Cl)cc(Cl)c2Cl)[nH]c2nc(-c3ccccc3)nn12 [1-87] | – | B (0.5 ≦ B < 0.001 μM)
57 | CCc1ccc(NCc2cc(=O)n3nc(CC)nc3[nH]2)cc1 [5-8] | < 6.30 | –
58 | O=C(NC1(CO)CCCC1)C1(OCc2cc(=O)n3nc(-c4ccccc4)nc3[nH]2)CCCCC1 [48-59] | – | B (0.5 ≦ B < 0.001 μM)
